Experimental findings from US9045445B2, “Glycine transporter-1 inhibitors, methods of making them, and uses thereof” (Albany Molecular Research, Inc., priority 2010, dated 2015) are described below.

pIC50: −log10 of the molar value. Where a name gives a salt, the structure may show the parent alone.

Usually pIC50 stands for −log10 of the IC50, conventionally taken in molar units.

Assay [1] addresses T1, glycine transporter-1 (GlyT-1) (Homo sapiens, UniProt P48067).
T1 construct: JAR cells (ATCC#HTB-144), which endogenously express GlyT-1; host or cells: JAR human choriocarcinoma cells
T1 sequence (P48067 1-706): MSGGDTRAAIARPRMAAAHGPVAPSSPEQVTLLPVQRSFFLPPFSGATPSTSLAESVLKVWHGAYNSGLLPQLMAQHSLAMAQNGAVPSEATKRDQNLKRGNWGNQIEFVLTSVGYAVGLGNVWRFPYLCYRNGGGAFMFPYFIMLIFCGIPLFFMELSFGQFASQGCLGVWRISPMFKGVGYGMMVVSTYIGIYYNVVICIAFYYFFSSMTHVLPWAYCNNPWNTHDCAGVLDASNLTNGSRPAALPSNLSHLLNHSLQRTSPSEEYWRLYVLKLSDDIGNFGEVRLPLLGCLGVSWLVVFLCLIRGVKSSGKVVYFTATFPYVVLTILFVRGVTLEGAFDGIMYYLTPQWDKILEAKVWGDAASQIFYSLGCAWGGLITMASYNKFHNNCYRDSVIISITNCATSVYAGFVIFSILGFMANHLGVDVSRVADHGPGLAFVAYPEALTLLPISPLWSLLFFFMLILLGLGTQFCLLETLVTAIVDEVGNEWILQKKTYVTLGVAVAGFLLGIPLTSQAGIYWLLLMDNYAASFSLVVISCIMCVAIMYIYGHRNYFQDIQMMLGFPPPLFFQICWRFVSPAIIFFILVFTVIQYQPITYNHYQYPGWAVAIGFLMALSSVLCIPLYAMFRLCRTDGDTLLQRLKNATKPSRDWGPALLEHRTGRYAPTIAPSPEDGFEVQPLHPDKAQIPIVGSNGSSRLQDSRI
As to the kind of experiment: [14C]glycine uptake assay in JAR cells endogenously expressing GlyT-1 (scintillation proximity). The class given is cell-based. As to conditions: JAR cells, [14C]glycine 5 μM, 3 hour incubation; read-out: GlyT-1 IC50. In short, it runs like this: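 IC50 comes from a four-parameter fit of nine-point, duplicate curves measuring inhibition of 5 μM [14C]glycine uptake, read by scintillation proximity after 3 h at 37 °C. Cells are human JAR, which express GlyT-1 endogenously, given 10 min compound pre-treatment in pH 7.4 buffer with 5 mM alanine and 0.75% DMSO.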
A general note: SPA uses beads or plates that emit light when radiolabelled molecules are held near them.

The target of assay [2] is T2, glycine transporter-2 (GlyT-2) (Homo sapiens, UniProt Q9Y345).
T2 construct: expressed in transfected cells
T2 sequence (Q9Y345 1-797): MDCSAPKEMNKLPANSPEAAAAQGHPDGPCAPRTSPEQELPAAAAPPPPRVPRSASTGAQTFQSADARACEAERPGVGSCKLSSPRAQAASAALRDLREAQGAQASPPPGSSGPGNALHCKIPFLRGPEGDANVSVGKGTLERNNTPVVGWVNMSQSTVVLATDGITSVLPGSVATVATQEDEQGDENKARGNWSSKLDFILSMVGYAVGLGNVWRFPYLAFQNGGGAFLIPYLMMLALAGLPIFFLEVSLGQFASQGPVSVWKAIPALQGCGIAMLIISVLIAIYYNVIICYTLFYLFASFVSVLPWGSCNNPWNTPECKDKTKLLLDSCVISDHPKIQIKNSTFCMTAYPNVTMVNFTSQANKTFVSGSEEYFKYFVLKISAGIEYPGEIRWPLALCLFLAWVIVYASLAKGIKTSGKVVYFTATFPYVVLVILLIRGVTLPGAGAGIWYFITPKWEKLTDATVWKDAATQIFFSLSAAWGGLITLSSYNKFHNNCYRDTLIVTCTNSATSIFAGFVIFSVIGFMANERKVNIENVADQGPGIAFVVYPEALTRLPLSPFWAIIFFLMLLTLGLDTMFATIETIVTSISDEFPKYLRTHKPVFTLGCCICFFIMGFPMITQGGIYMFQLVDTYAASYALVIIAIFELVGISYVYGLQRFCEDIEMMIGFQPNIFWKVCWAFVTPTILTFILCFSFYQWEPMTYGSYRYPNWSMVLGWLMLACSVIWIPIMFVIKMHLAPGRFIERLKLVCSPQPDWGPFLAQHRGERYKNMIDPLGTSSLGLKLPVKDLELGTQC
As to the kind of experiment: [14C]glycine uptake assay in HEK-GlyT-2 transfected cells. The class given is cell-based. As to conditions: HEK-GlyT-2 cells.

For `Cn1cnc(S(=O)(=O)N2CCN(C3(CNC(=O)c4c(N)cccc4Cl)CCCCC3)CC2)c1` [compound 99, 2-Amino-6-chloro-N-((1-(4-(1-methyl-1H-imidazol-4-ylsulfonyl)piperazin-1-yl)cyclohexyl)methyl) benzamide Hydrochloride], the pIC50 was 8.70 in assay [1] and less than 4.12 in assay [2].

Regarding `COc1cccc(F)c1C(=O)NCC1(N2CCN(S(=O)(=O)c3cn(C)cn3)CC2)CCCCC1` [compound 96, 2-Fluoro-6-methoxy-N-((1-(4-(1-methyl-1H-imidazol-4-ylsulfonyl)piperazin-1-yl)cyclohexyl)methyl) benzamide Hydrochloride], the pIC50 in assay [1] was 8.70; in assay [2], less than 4.12.

For the compound `CC1CN(C2(CNC(=O)c3c(F)cccc3F)CCCCC2)CCN1S(=O)(=O)CC1CC1` (stereo not shown) [compound 117, N-((1-(4-(Cyclopropylmethyl-sulfonyl)-3-methylpiperazin-1-yl)cyclohexyl)methyl)-2,6-difluorobenzamide Hydrochloride], the pIC50 in assay [1] was 5.97; in assay [2], less than 4.12.

Take `CCCS(=O)(=O)N1CCN(C2(CNC(=O)c3ccc(Cl)cc3Cl)CCC(F)(F)CC2)CC1` [compound 136, 2,4-Dichloro-N-((4,4-difluoro-1-(4-(propylsulfonyl)piperazin-1-yl)cyclohexyl)methyl) benzamide Hydrochloride]: the pIC50 is 7.44 in assay [1] and less than 4.12 in assay [2].

As to `Cc1cccc(F)c1C(=O)NCC1(N2CCN(S(=O)(=O)CC3CC3)CC2)CCCCC1` [compound 80, N-((1-(4-(Cyclopropylmethyl-sulfonyl)piperazin-1-yl)cyclohexyl)methyl)-2-fluoro-6-methylbenzamide Hydrochloride], the pIC50 in assay [1] was 7.54; in assay [2], less than 4.12.

For `Cc1ccc(C(=O)NCC2(N3CCN(S(=O)(=O)c4cn(C)cn4)CC3)CCCCC2)c(C)c1` [compound 94, 2,4-Dimethyl-N-((1-(4-(1-methyl-1H-imidazol-4-ylsulfonyl)piperazin-1-yl)cyclohexyl)methyl) benzamide Hydrochloride], the pIC50 in assay [1] is 7.89; in assay [2], less than 4.12.

Regarding `CCCS(=O)(=O)N1CCN(C2(CNC(=O)c3c(F)cc(F)cc3F)CCCCC2)CC1` [compound 48, 2,4,6-Trifluoro-N-((1-(4-(propylsulfonyl)piperazin-1-yl)cyclohexyl)methyl) benzamide Hydrochloride], the pIC50 in assay [1] is 7.80; in assay [2], less than 4.12.

Take `CCCS(=O)(=O)N1CCN(C2(CNC(=O)c3ccc(C(F)(F)F)cc3)CCCCC2)CC1` [compound 7, N-((1-(4-(Propyl-sulfonyl)piperazin-1-yl)cyclohexyl)methyl)-4-(trifluoromethyl) benzamide Hydrochloride]: the pIC50 is 6.90 in assay [1] and less than 4.52 in assay [2].

Regarding `Cn1cc(S(=O)(=O)N2CCN(C3(CNC(=O)c4c(F)cc(Cl)cc4F)CCC(F)(F)CC3)CC2)nn1` [compound 230, 4-Chloro-N-((4,4-difluoro-1-(4-(1-methyl-1H-1,2,3-triazol-4-ylsulfonyl)piperazin-1-yl)cyclohexyl)methyl)-2,6-difluorobenzamide Hydrochloride], the pIC50 in assay [1] is 8.52; in assay [2], less than 4.12.

As for `CCCS(=O)(=O)N1CCN(C2(CNC(=O)c3c(F)cccc3OC)CCCCC2)CC1` [compound 44, 2-Fluoro-6-methoxy-N-((1-(4-(propyl-sulfonyl)piperazin-1-yl)cyclohexyl)methyl) benzamide Hydrochloride], the pIC50 is 7.77 in assay [1] and less than 4.12 in assay [2].

For `O=C(NCC1(N2CCN(S(=O)(=O)CC3CC3)CC2)CCCCC1)c1c(F)cccc1F` [compound 81, N-((1-(4-(Cyclopropylmethyl-sulfonyl)piperazin-1-yl)cyclohexyl)methyl)-2,6-difluorobenzamide Hydrochloride], the figures for the pIC50 in assay [1] and in assay [2] were 7.21 and less than 4.12, respectively.

On to `CCS(=O)(=O)N1CCN(C2(CNC(=O)c3c(C)cc(F)cc3OC)CCCCCC2)CC1` [compound 87, N-((1-(4-(Ethylsulfonyl)piperazin-1-yl)cycloheptyl)methyl)-4-fluoro-2-methoxy-6-methylbenzamide Hydrochloride], for which the negative logarithm of the IC50 (pIC50) in assay [1] is 6.81; in assay [2] it was less than 4.12.

Regarding `O=C(NCC1(N2CCN(S(=O)(=O)C3CCC3)CC2)CCCCC1)c1ccc(Cl)cc1Cl` [compound 93, 2,4-Dichloro-N-((1-(4-(cyclobutylsulfonyl)piperazin-1-yl)cyclohexyl)methyl)benzamide Hydrochloride], the figures for the pIC50 in assay [1] and in assay [2] were 6.50 and less than 4.12, respectively.

On to `CCCS(=O)(=O)N1CCN(C2(CNC(=O)c3c(OC)cc(F)cc3SC)CCC(F)(F)CC2)CC1` [compound 138, N-((4,4-Difluoro-1-(4-(propylsulfonyl)piperazin-1-yl)cyclohexyl)methyl)-4-fluoro-2-methoxy-6-(methylthio)benzamide Hydrochloride], for which the pIC50 in assay [1] is 7.60; in assay [2], less than 4.12.

In the case of `Cn1cnc(S(=O)(=O)N2CCN(C3(CNC(=O)c4c(F)cccc4F)CCCCC3)CC2)c1` [compound 98, 2,6-Difluoro-N-((1-(4-(1-methyl-1H-imidazol-4-ylsulfonyl)piperazin-1-yl)cyclohexyl)methyl) benzamide Hydrochloride], the pIC50 in assay [1] is 8.40; in assay [2], less than 4.12.

Take `CC(NC(=O)c1ccc(F)cc1Cl)C1(N2CCN(S(=O)(=O)c3cn(C)nn3)CC2)CCC(F)(F)CC1` (stereo not shown) [compound 220, 2-Chloro-N-(1-(4,4-difluoro-1-(4-(1-methyl-1H-1,2,3-triazol-4-ylsulfonyl)piperazin-1-yl)cyclohexyl)ethyl)-4-fluorobenzamide Hydrochloride]: the results for the pIC50 in assay [1] and in assay [2] were 7.08 and less than 4.12, respectively.

On to `O=C(NCC1(N2CCN(S(=O)(=O)CC3CC3)CC2)CCCOC1)c1c(F)cccc1F` (stereo not shown) [compound 126, N-((3-(4-(Cyclopropylmethyl-sulfonyl)piperazin-1-yl)tetrahydro-2H-pyran-3-yl)methyl)-2,6-difluorobenzamide Hydrochloride], for which the pIC50 is 6.14 in assay [1] and less than 4.12 in assay [2].

For the compound `Cn1cc(S(=O)(=O)N2CCN(C3(CNC(=O)c4c(F)cccc4F)CCCCC3)CC2)nn1` [compound 114, 2,6-Difluoro-N-((1-(4-(1-methyl-1H-1,2,3-triazol-4-ylsulfonyl)piperazin-1-yl)cyclohexyl)methyl) benzamide Hydrochloride], the pIC50 in assay [1] is 8.70; in assay [2], less than 4.12.

In the case of `Cn1cc(S(=O)(=O)N2CCN(C3(CNC(=O)c4c(F)cccc4F)CCOCC3)CC2)nn1` [compound 128, 2,6-Difluoro-N-((4-(4-(1-methyl-1H-1,2,3-triazol-4-ylsulfonyl)piperazin-1-yl)tetrahydro-2H-pyran-4-yl)methyl)benzamide Hydrochloride], the pIC50 is 7.08 in assay [1] and less than 4.12 in assay [2].

`O=C(NCC1(N2CCN(S(=O)(=O)N3CCCC3)CC2)CCC(F)(F)CC1)c1ccc(C(F)(F)F)cc1Cl` [compound 270, 2-Chloro-N-((4,4-difluoro-1-(4-(pyrrolidin-1-ylsulfonyl)piperazin-1-yl)cyclohexyl)methyl)-4-(trifluoromethyl)benzamide Hydrochloride]: the results for the pIC50 in assay [1] and in assay [2] were 7.33 and less than 4.12, respectively.
